These cell lines were tested with C1=CC2=C(C=C(C(=C2N=C1)O)N=NC3=CC4=C(C=C3)C=C(C=C4)S(=O)(=O)O)S(=O)(=O)O + CC(=O)Nc1cccc(-n2c(=O)n(C3CC3)c(=O)c3c(Nc4ccc(I)cc4F)n(C)c(=O)c(C)c32)c1 [Trametinib] (partner 0.02 µM) (assay: relative viability (nuclei count vs DMSO), 5 days (fraction); higher = more cells survive). Conditions: first compound 0.08 µM.
Procedure, shortened: (§1)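 One day after seeding in 1536-well plates, lung cancer cell lines were dosed by pin tool. Dosing was either single-drug or a fixed anchor-drug dose plus five library-drug doses (not always all listed) in √10 steps. After 5 days, nuclei were stained in one fix-and-stain step and counted on 4× images, and relative viability is the nuclei count of treated wells over that of vehicle wells, given as the median of duplicate plates.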

Cell Line | relative viability
HCC-44 | 1.04
LU99A | 0.582
BEN | 1.1
HARA | 0.878
HCC-78 | 0.804
NCI-H322M | 0.535
LCLC-97TM1 | 0.197
NCI-H2009 | 0.316
A-427 | 0.721
NCI-H441 | 0.558
NCI-H661 | 0.627
NCI-H1734 | 0.728
NCI-H460 | 0.187
NCI-H2347 | 0.316
SK-LU-1 | 0.681
201T | 0.721
NCI-H1915 | 0.268

Cell Line | relative viability
HCC-827 | 0.505
LXF-289 | 0.718
NCI-H23 | 0.39
NCI-H647 | 0.584
NCI-H1651 | 0.799
EPLC-272H | 0.358
NCI-H1792 | 0.5
NCI-H1355 | 0.41
NCI-H3122 | 0.218
NCI-H1437 | 0.528
NCI-H1755 | 0.761
NCI-H2023 | 0.527
HCC-15 | 0.427
PC-14 | 0.743
EKVX | 0.346
LC-2-ad | 0.932

Same assay, conditions: first compound 0.253 µM

Cell Line | relative viability
HCC-44 | 1.01
LU99A | 0.502
BEN | 1.1
HARA | 0.442
HCC-78 | 0.724
NCI-H322M | 0.544
LCLC-97TM1 | 0.183
NCI-H2009 | 0.3
A-427 | 0.719
NCI-H441 | 0.464
NCI-H661 | 0.532
NCI-H1734 | 0.654
NCI-H460 | 0.0935
NCI-H2347 | 0.303
SK-LU-1 | 0.509
201T | 0.731
NCI-H1915 | 0.299

Cell Line | relative viability
HCC-827 | 0.521
LXF-289 | 0.682
NCI-H23 | 0.319
NCI-H647 | 0.429
NCI-H1651 | 0.839
EPLC-272H | 0.276
NCI-H1792 | 0.387
NCI-H1355 | 0.411
NCI-H3122 | 0.225
NCI-H1437 | 0.477
NCI-H1755 | 0.754
NCI-H2023 | 0.58
HCC-15 | 0.387
PC-14 | 0.688
EKVX | 0.305
LC-2-ad | 0.851

Same assay, conditions: first compound 0.8 µM

Cell Line | relative viability
HCC-44 | 1.09
LU99A | 0.505
BEN | 0.948
HARA | 0.869
HCC-78 | 0.813
NCI-H322M | 0.566
LCLC-97TM1 | 0.191
NCI-H2009 | 0.294
A-427 | 0.718
NCI-H441 | 0.435
NCI-H661 | 0.568
NCI-H1734 | 0.687
NCI-H460 | 0.138
NCI-H2347 | 0.279
SK-LU-1 | 0.517
201T | 0.713
NCI-H1915 | 0.288

Cell Line | relative viability
HCC-827 | 0.524
LXF-289 | 0.638
NCI-H23 | 0.392
NCI-H647 | 0.426
NCI-H1651 | 0.832
EPLC-272H | 0.277
NCI-H1792 | 0.454
NCI-H1355 | 0.431
NCI-H3122 | 0.227
NCI-H1437 | 0.524
NCI-H1755 | 0.739
NCI-H2023 | 0.558
HCC-15 | 0.428
PC-14 | 0.782
EKVX | 0.37
LC-2-ad | 0.941

Same assay, conditions: first compound 2.53 µM

Cell Line | relative viability
HCC-44 | 1.04
LU99A | 0.548
BEN | 1.07
HARA | 0.82
HCC-78 | 0.712
NCI-H322M | 0.504
LCLC-97TM1 | 0.182
NCI-H2009 | 0.288
A-427 | 0.781
NCI-H441 | 0.341
NCI-H661 | 0.625
NCI-H1734 | 0.72
NCI-H460 | 0.141
NCI-H2347 | 0.262
SK-LU-1 | 0.499
201T | 0.709
NCI-H1915 | 0.301

Cell Line | relative viability
HCC-827 | 0.524
LXF-289 | 0.679
NCI-H23 | 0.443
NCI-H647 | 0.54
NCI-H1651 | 0.848
EPLC-272H | 0.287
NCI-H1792 | 0.494
NCI-H1355 | 0.416
NCI-H3122 | 0.242
NCI-H1437 | 0.623
NCI-H1755 | 0.761
NCI-H2023 | 0.589
HCC-15 | 0.377
PC-14 | 0.838
EKVX | 0.341
LC-2-ad | 0.892

Same assay, conditions: first compound 8 µM

Cell Line | relative viability
HCC-44 | 0.797
LU99A | 0.646
BEN | 1.05
HARA | 0.532
HCC-78 | 0.675
NCI-H322M | 0.528
LCLC-97TM1 | 0.15
NCI-H2009 | 0.24
A-427 | 0.732
NCI-H441 | 0.476
NCI-H661 | 0.613
NCI-H1734 | 0.694
NCI-H460 | 0.169
NCI-H2347 | 0.316
SK-LU-1 | 0.672
201T | 0.693
NCI-H1915 | 0.28

Cell Line | relative viability
HCC-827 | 0.578
LXF-289 | 0.62
NCI-H23 | 0.346
NCI-H647 | 0.518
NCI-H1651 | 0.744
EPLC-272H | 0.282
NCI-H1792 | 0.391
NCI-H1355 | 0.476
NCI-H3122 | 0.225
NCI-H1437 | 0.641
NCI-H1755 | 0.732
NCI-H2023 | 0.637
HCC-15 | 0.365
PC-14 | 0.69
EKVX | 0.332
LC-2-ad | 0.98

The cell lines below were run with C1=CC2=C(C=C(C(=C2N=C1)O)N=NC3=CC4=C(C=C3)C=C(C=C4)S(=O)(=O)O)S(=O)(=O)O + CC(C)C[C@H](NC(=O)[C@H](Cc1ccccc1)NC(=O)c1cnccn1)B(O)O [Bortezomib] (partner 0.002 µM) in the same assay as above. Conditions: first compound 0.08 µM.
Procedure, shortened: as §1

Cell Line | relative viability
HCC-44 | 0.903
LU99A | 1.27
BEN | 0.967
HARA | 1.14
HCC-78 | 0.513
NCI-H322M | 1.26
LCLC-97TM1 | 0.815
NCI-H2009 | 0.909
A-427 | 0.956
NCI-H441 | 0.576
NCI-H661 | 0.838
NCI-H1734 | 1.07
NCI-H460 | 1.39
NCI-H2347 | 1.23
SK-LU-1 | 1.05
201T | 1.09
NCI-H1915 | 1.02

Cell Line | relative viability
HCC-827 | 1.06
LXF-289 | 0.95
NCI-H23 | 1.06
NCI-H647 | 1.2
NCI-H1651 | 0.942
EPLC-272H | 0.895
NCI-H1792 | 1.09
NCI-H1355 | 1.22
NCI-H3122 | 0.975
NCI-H1437 | 0.578
NCI-H1755 | 1.08
NCI-H2023 | 0.945
HCC-15 | 1.16
PC-14 | 0.923
EKVX | 1.15
LC-2-ad | 1.12

Same assay, conditions: first compound 0.253 µM

Cell Line | relative viability
HCC-44 | 0.835
LU99A | 1.13
BEN | 0.75
HARA | 1.08
HCC-78 | 0.469
NCI-H322M | 1.11
LCLC-97TM1 | 0.492
NCI-H2009 | 0.921
A-427 | 1.02
NCI-H441 | 0.385
NCI-H661 | 0.838
NCI-H1734 | 0.885
NCI-H460 | 1.04
NCI-H2347 | 0.962
SK-LU-1 | 0.942
201T | 1.1
NCI-H1915 | 0.957

Cell Line | relative viability
HCC-827 | 0.95
LXF-289 | 0.96
NCI-H23 | 0.82
NCI-H647 | 1.08
NCI-H1651 | 0.903
EPLC-272H | 0.917
NCI-H1792 | 0.931
NCI-H1355 | 1.22
NCI-H3122 | 0.899
NCI-H1437 | 0.509
NCI-H1755 | 0.962
NCI-H2023 | 0.945
HCC-15 | 1.02
PC-14 | 0.839
EKVX | 0.781
LC-2-ad | 1.04

Same assay, conditions: first compound 0.8 µM

Cell Line | relative viability
HCC-44 | 0.931
LU99A | 1.04
BEN | 0.776
HARA | 1.03
HCC-78 | 0.475
NCI-H322M | 1.22
LCLC-97TM1 | 0.525
NCI-H2009 | 0.965
A-427 | 0.981
NCI-H661 | 0.769
NCI-H1734 | 0.863
NCI-H460 | 0.99
NCI-H2347 | 0.982
SK-LU-1 | 0.963
201T | 1.07
NCI-H1915 | 0.92

Cell Line | relative viability
HCC-827 | 0.948
LXF-289 | 0.986
NCI-H23 | 1.08
NCI-H647 | 0.97
NCI-H1651 | 0.894
EPLC-272H | 0.935
NCI-H1792 | 0.886
NCI-H1355 | 1.15
NCI-H3122 | 1.02
NCI-H1437 | 0.483
NCI-H1755 | 0.934
NCI-H2023 | 1.01
HCC-15 | 1.02
PC-14 | 0.906
EKVX | 0.987
LC-2-ad | 0.976

Same assay, conditions: first compound 2.53 µM

Cell Line | relative viability
HCC-44 | 0.905
LU99A | 0.986
BEN | 0.875
HARA | 1.13
HCC-78 | 0.417
NCI-H322M | 1.32
LCLC-97TM1 | 0.753
NCI-H2009 | 0.968
A-427 | 1.04
NCI-H441 | 0.484
NCI-H661 | 0.829
NCI-H1734 | 1.09
NCI-H460 | 1.19
NCI-H2347 | 0.98
SK-LU-1 | 1.1
201T | 1.11
NCI-H1915 | 0.892

Cell Line | relative viability
HCC-827 | 1.02
LXF-289 | 0.986
NCI-H23 | 1.06
NCI-H647 | 0.953
NCI-H1651 | 0.963
EPLC-272H | 0.924
NCI-H1792 | 0.976
NCI-H1355 | 1.23
NCI-H3122 | 0.996
NCI-H1437 | 0.414
NCI-H1755 | 0.95
NCI-H2023 | 1.15
HCC-15 | 0.985
PC-14 | 0.888
EKVX | 1.11
LC-2-ad | 1.08

Same assay, conditions: first compound 8 µM

Cell Line | relative viability
HCC-44 | 0.9
LU99A | 1.29
BEN | 0.873
HARA | 1.01
HCC-78 | 0.526
NCI-H322M | 1.28
LCLC-97TM1 | 0.395
NCI-H2009 | 0.916
A-427 | 0.966
NCI-H441 | 0.718
NCI-H661 | 0.809
NCI-H1734 | 0.978
NCI-H460 | 1.09
NCI-H2347 | 0.955
SK-LU-1 | 0.99
201T | 1
NCI-H1915 | 0.935

Source: the supplement of paper PMC10307832
